Experiment: thermal stability during DSC measurements (FTIR-ATR and weight before and after)
Assay type: physicochemical
Details: across the range of temperatures used in the DSC study (solid and melt)
Protocol: No polymorphs or solvates have so far been reported. However, in order to confirm that no crystal phase or pseudo-polymorphic transitions occurred during solubility measurements, the sediments collected after flask-shake experiments were analyzed using DSC and FTIR-ATR techniques. The results of these measurements are summarized in supplementary materials in Figures S1 and S2. The solvate formation can be identified by the absorption band shifts on the IR spectra. With DSC thermograms, the formation of a new crystal form would be associated with polymorphic transformations or solvate degradation found prior to the melting peak. Both IR spectra and DSC thermograms recorded for sediments were similar to pure phenacetin. […] As documented in Figure 1, both spectra are nearly identical as indicated by the differential plot.
It is notable that the temperature trends are linear, and it is reasonable to expect that a change of heat capacity values associated with melting ∆Cp would adopt a linear temperature relationship.
The calibration was performed using zinc and indium standards.

thermal stability: stable
Structure (SMILES): CCOc1ccc(NC(C)=O)cc1 [phenacetin, N-(4-ethoxyphenyl)acetamide]

From paper PMC8272242 (Molecules, 2021)
